“And” between values parts separate entries of the source, which are not always exact repeats. Equal values may be shown once. Read-outs that look alike come from different tables or passages of the source.
How the values were obtained:
[1] = Toxicity analysis of test compounds in 2.2.15 cells (neutral red dye uptake); assay type: cell-based; conditions: human
HBV [2] = test: Effect of nucleosides on HBV production in 2.2.15 cells (HBV virion DNA and intracellular HBV DNA); assay type: cell-based, Hepatitis B virus; conditions: for inhibition at 10 µM: Hepatitis B virus
Protocol: The ability of β-D-dioxolane-nucleosides to inhibit HBV can be measured by various experimental techniques. The assay used herein to evaluate the ability of the disclosed compounds to inhibit the replication of HBV is described in detail in Korba and Gerin, Antiviral Res. 19:55-70 (1992). […] The other compounds disclosed herein are evaluated similarly.
The antiviral evaluations were performed on two separate passages of cells, two cultures per passage (4 cultures total). All wells, in all plates, were seeded at the same density and at the same time.
Due to the inherent variations in the levels of both intracellular and extracellular HBV DNA, only depressions greater than 3.0-fold (for HBV virion DNA) or 2.5-fold (for HBV DNA replication intermediates) from the average levels for these HBV DNA forms in untreated cells are generally considered to be statistically significant [P<0.05] (Korba and Gerin, Antiviral Res. 19: 55-70, 1992). The levels of integrated HBV DNA in each cellular DNA preparation (which remain constant on a per cell basis in these experiments) were used to calculate the levels of intracellular HBV DNA forms, thereby eliminating technical variations inherent in the blot hybridization assays.
The test compounds were used in the form of 40 mM stock solutions in DMSO (frozen on dry ice). Daily aliquots of the test samples were made and frozen at -20° C. so that each individual aliquot would be subjected to a single freeze-thaw cycle. […] The compounds were tested for toxicity at concentrations up to 300 μM.

2.2.15 cells = conditions: versus untreated cultures; Korba and Gerin 1992; read-out: Concentration at which a 2-fold reduction in dye uptake is typically observed; cited from earlier work
[3] = Toxicity analysis of test compounds in 2.2.15 cells (neutral red dye uptake); assay type: cell-based; conditions: human; remark: listed apart in the source
Protocol: Toxicity analyses were performed in order to assess whether any observed antiviral effects are due to a general effect on cell viability. The method used was based on the uptake of neutral red dye, a standard and widely used assay for cell viability in a variety of virus-host systems, including HSV (herpes simplex virus) and HIV. Details of the procedure are provided in the toxicity table legends.
The test compounds were used in the form of 40 mM stock solutions in DMSO (frozen on dry ice). Daily aliquots of the test samples were made and frozen at -20° C. so that each individual aliquot would be subjected to a single freeze-thaw cycle. The daily test aliquots were thawed, suspended into culture medium at room temperature and immediately added to the cell cultures° The compounds were tested at 0.0 and 1 μM for antiviral activity. The compounds were tested for toxicity at concentrations up to 300 μM.
Toxicity analyses were performed in 96-well flat bottomed tissue culture plates. Cells for the toxicity analyses were cultured and treated with test compounds with the same schedule as used for the antiviral evaluations. Each compound was tested at 4 concentrations, each in triplicate cultures. Uptake of neutral red dye was used to determine the relative level of toxicity. The absorbance of internalized dye at […] (A510) was used for the quantitative analysis. Values are presented as a percentage of the average A510 values (±standard deviations) in 9 separate cultures of untreated cells maintained on the same 96-well plate as the test compounds.

HBV [4] = conditions: relative to average levels in untreated cells; Korba and Gerin 1992; read-out: Concentration at which a 90% depression of HBV RI is typically observed; cited from earlier work
[5] = 10 μM, individual culture, listed as DDC

Compound: Nc1ccn([C@H]2CC[C@@H](CO)O2)c(=O)n1 [2',3'-ddC, 2',3'-dideoxycytosine, reference compound]
- viability at 1000 µM [1]: 5 ± 1%
- HBV virion DNA, day 0 (HBV [2]; [5]): 66 pg/ml of cultured medium and 58 pg/ml of cultured medium and 67 pg/ml of cultured medium and 51 pg/ml of cultured medium
- HBV virion DNA, day 3 (HBV [2]; [5]): 50 pg/ml of cultured medium and 52 pg/ml of cultured medium and 51 pg/ml of cultured medium and 48 pg/ml of cultured medium
- HBV virion DNA, day 6 (HBV [2]; [5]): 20 pg/ml of cultured medium and 13 pg/ml of cultured medium and 19 pg/ml of cultured medium and 17 pg/ml of cultured medium
- HBV virion DNA, day 9 (HBV [2]; [5]): 2 pg/ml of cultured medium and 3 pg/ml of cultured medium
- Intracellular HBV DNA on Day 10, Mono (episomal 3.2kB HBV genomes) (HBV [2]; [5]): 0.9 pg/μM of cellular DNA and 1.0 pg/μM of cellular DNA and 1.4 pg/μM of cellular DNA and 1.1 pg/μM of cellular DNA
- Intracellular HBV DNA on Day 10, RI (HBV DNA replication intermediates) (HBV [2]; [5]): 6 pg/μM of cellular DNA and 4 pg/μM of cellular DNA and 5 pg/μM of cellular DNA and 7 pg/μM of cellular DNA
- HBV virion DNA, day 0, mean (HBV [2]; 10 μM, mean of 4 cultures): 60.50 pg/ml of cultured medium
- HBV virion DNA, day 3, mean (HBV [2]; 10 μM, mean of 4 cultures): 50.25 pg/ml of cultured medium
- HBV virion DNA, day 6, mean (HBV [2]; 10 μM, mean of 4 cultures): 17.25 pg/ml of cultured medium
- HBV virion DNA, day 9, mean (HBV [2]; 10 μM, mean of 4 cultures): 2.25 pg/ml of cultured medium
- Intracellular HBV DNA on Day 10, Mono, mean (HBV [2]; 10 μM, mean of 4 cultures): 1.10 pg/μM of cellular DNA
- Intracellular HBV DNA on Day 10, RI, mean (HBV [2]; 10 μM, mean of 4 cultures): 5.50 pg/μM of cellular DNA
- inhibition at 10 µM (HBV [2]; 0 h, read-out: % inhibition, HBV virion DNA, day 0): 3.97%
- inhibition at 10 µM (HBV [2]; 72 h, read-out: % inhibition, HBV virion DNA, day 3): 22.4%
- inhibition at 10 µM (HBV [2]; 144 h, read-out: % inhibition, HBV virion DNA, day 6): 77.5%
- inhibition at 10 µM (HBV [2]; 216 h, read-out: % inhibition, HBV virion DNA, day 9): 97%
- inhibition at 10 µM (HBV [2]; 240 h, read-out: % inhibition, intracellular HBV DNA Mono, Day 10): 56.4%
- inhibition at 10 µM (HBV [2]; 240 h, read-out: % inhibition, intracellular HBV DNA RI, Day 10): 92.5%
- Depression of HBV DNA replication (HBV [2]; positive treatment control, at the concentration used): significant depressions of HBV DNA replication
- CC50 (2.2.15 cells): 150 to 190 µM
- viability at 30 µM ([3]; 30 μM): 101 ± 1%
- viability at 100 µM ([3]; 100 μM): 97 ± 2%
- viability at 300 µM ([3]; 300 μM): 44 ± 1%
- EC90 (HBV [4]): 9 to 12 µM

From patent publication US5444063A, “Enantiomerically pure β-D-dioxolane nucleosides with selective anti-Hepatitis B virus activity” (priority 1992, dated 1995)
